In PubChem BioAssay (NCI):
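96-well plates; 48 h exposure; 5 concentrations. Endpoints by linear interpolation between flanking doses. Not reached: highest tested concentration assigned. At the TGI there is no net growth.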

How the values were obtained:
Assay in all cases: NCI anticancer screen, dose series, 48 h
786-0 renal = test system: 786-0 renal
A498 renal = test system: A498 renal
A549 NSCLC = test system: A549 NSCLC
ACHN renal = test system: ACHN renal
BT-549 breast = test system: BT-549 breast
CAKI-1 renal = test system: CAKI-1 renal
CCRF-CEM leukemia = test system: CCRF-CEM leukemia
COLO 205 colon = test system: COLO 205 colon
DLD-1 colon = test system: DLD-1 colon
DMS 114 small cell lung = test system: DMS 114 small cell lung
DMS 273 small cell lung = test system: DMS 273 small cell lung
DU-145 prostate = test system: DU-145 prostate
EKVX NSCLC = test system: EKVX NSCLC
HCC-2998 colon = test system: HCC-2998 colon
HCT-116 colon = test system: HCT-116 colon
HCT-15 colon = test system: HCT-15 colon
HL-60(TB) leukemia = test system: HL-60(TB) leukemia
HOP-62 NSCLC = test system: HOP-62 NSCLC
HOP-92 NSCLC = test system: HOP-92 NSCLC
HS 578T breast = test system: HS 578T breast
HT29 colon = test system: HT29 colon
IGROV1 ovarian = test system: IGROV1 ovarian
K-562 leukemia = test system: K-562 leukemia
KM12 colon = test system: KM12 colon
KM20L2 colon = test system: KM20L2 colon
LOX IMVI melanoma = test system: LOX IMVI melanoma
LXFL 529 NSCLC = test system: LXFL 529 NSCLC
M14 melanoma = test system: M14 melanoma
M19-MEL melanoma = test system: M19-MEL melanoma
MALME-3M melanoma = test system: MALME-3M melanoma
MCF7 breast = test system: MCF7 breast
MDA-MB-231 breast = test system: MDA-MB-231 breast
MDA-MB-435 = test system: MDA-MB-435
MDA-N = test system: MDA-N
MOLT-4 leukemia = test system: MOLT-4 leukemia
NCI-H226 lung = test system: NCI-H226 lung
NCI-H23 lung = test system: NCI-H23 lung
NCI-H460 lung = test system: NCI-H460 lung
NCI-H522 lung = test system: NCI-H522 lung
NCI/ADR-RES ovarian = test system: NCI/ADR-RES ovarian
OVCAR-3 ovarian = test system: OVCAR-3 ovarian
OVCAR-4 ovarian = test system: OVCAR-4 ovarian
OVCAR-5 ovarian = test system: OVCAR-5 ovarian
OVCAR-8 ovarian = test system: OVCAR-8 ovarian
PC-3 prostate = test system: PC-3 prostate
RPMI-8226 leukemia = test system: RPMI-8226 leukemia
RXF 393 renal = test system: RXF 393 renal
RXF-631 renal = test system: RXF-631 renal
SF-268 CNS = test system: SF-268 CNS
SF-295 CNS = test system: SF-295 CNS
SF-539 CNS = test system: SF-539 CNS
SK-MEL-2 melanoma = test system: SK-MEL-2 melanoma
SK-MEL-28 melanoma = test system: SK-MEL-28 melanoma
SK-MEL-5 melanoma = test system: SK-MEL-5 melanoma
SK-OV-3 ovarian = test system: SK-OV-3 ovarian
SN12C renal = test system: SN12C renal
SNB-19 CNS = test system: SNB-19 CNS
SNB-75 CNS = test system: SNB-75 CNS
SNB-78 CNS = test system: SNB-78 CNS
SR leukemia = test system: SR leukemia
SW-620 colon = test system: SW-620 colon
T-47D breast = test system: T-47D breast
TK-10 renal = test system: TK-10 renal
U251 CNS = test system: U251 CNS
UACC-257 melanoma = test system: UACC-257 melanoma
UACC-62 melanoma = test system: UACC-62 melanoma
UO-31 renal = test system: UO-31 renal
XF 498 CNS = test system: XF 498 CNS
HOP-18 NSCLC = test system: HOP-18 NSCLC

O=C(CC(=O)c1ccccc1NC1=Cc2ccccc2C(=O)C1=O)C(=O)NC1=C(Cl)C(=O)c2ccccc2C1=O
TGI (786-0 renal): 10.7 µM | TGI (A498 renal): 30.3 µM | TGI (A549 NSCLC): 16.5 µM | TGI (ACHN renal): 10.7 µM | TGI (BT-549 breast): 9.14 µM | TGI (CAKI-1 renal): 24.1 µM | TGI (CCRF-CEM leukemia): 33.6 µM | TGI (COLO 205 colon): 31 µM | TGI (DLD-1 colon): 11.7 µM | TGI (DMS 114 small cell lung): 4 µM | TGI (DMS 273 small cell lung): 6.8 µM | TGI (DU-145 prostate): 16.1 µM | TGI (EKVX NSCLC): 22.4 µM | TGI (HCC-2998 colon): 26.8 µM | TGI (HCT-116 colon): 6.37 µM | TGI (HCT-15 colon): 6.03 µM | TGI (HL-60(TB) leukemia): 3.42 µM | TGI (HOP-62 NSCLC): 17.9 µM | TGI (HOP-92 NSCLC): 17.9 µM | TGI (HS 578T breast): 5.64 µM | TGI (HT29 colon): 26.1 µM | TGI (IGROV1 ovarian): 17.6 µM | TGI (K-562 leukemia): 9.7 µM | TGI (KM12 colon): 15.6 µM | TGI (KM20L2 colon): 30.5 µM | TGI (LOX IMVI melanoma): 3.35 µM | TGI (LXFL 529 NSCLC): 8.6 µM | TGI (M14 melanoma): 4.12 µM | TGI (M19-MEL melanoma): 0.931 µM | TGI (MALME-3M melanoma): 2.49 µM | TGI (MCF7 breast): 7.32 µM | TGI (MDA-MB-231 breast): 8.95 µM | TGI (MDA-MB-435): 3.36 µM | TGI (MDA-N): 3.15 µM | TGI (MOLT-4 leukemia): 18 µM | TGI (NCI-H226 lung): 20.1 µM | TGI (NCI-H23 lung): 6.25 µM | TGI (NCI-H460 lung): 12.1 µM | TGI (NCI-H522 lung): 4.79 µM | TGI (NCI/ADR-RES ovarian): 7 µM | TGI (OVCAR-3 ovarian): 7.05 µM | TGI (OVCAR-4 ovarian): 15.1 µM | TGI (OVCAR-5 ovarian): 12.6 µM | TGI (OVCAR-8 ovarian): 12.2 µM | TGI (PC-3 prostate): 6.69 µM | TGI (RPMI-8226 leukemia): 14.5 µM | TGI (RXF 393 renal): 7.5 µM | TGI (RXF-631 renal): 31.9 µM | TGI (SF-268 CNS): 11.8 µM | TGI (SF-295 CNS): 11.7 µM | TGI (SF-539 CNS): 9.11 µM | TGI (SK-MEL-2 melanoma): 6.6 µM | TGI (SK-MEL-28 melanoma): 3.71 µM | TGI (SK-MEL-5 melanoma): 2.05 µM | TGI (SK-OV-3 ovarian): > 83.8 µM | TGI (SN12C renal): 3.67 µM | TGI (SNB-19 CNS): 16.7 µM | TGI (SNB-75 CNS): 3.19 µM | TGI (SNB-78 CNS): 8.79 µM | TGI (SR leukemia): 14.1 µM | TGI (SW-620 colon): 7.98 µM | TGI (T-47D breast): 30.6 µM | TGI (TK-10 renal): 43.6 µM | TGI (U251 CNS): 12.5 µM | TGI (UACC-257 melanoma): 4.49 µM | TGI (UACC-62 melanoma): 3.97 µM | TGI (UO-31 renal): 20.4 µM | TGI (XF 498 CNS): 4.66 µM

O=C1c2ccccc2C2(O)Oc3cccc(O)c3C12O (configuration not stated)
TGI (786-0 renal): > 100 µM | TGI (A498 renal): > 100 µM | TGI (A549 NSCLC): > 100 µM | TGI (ACHN renal): > 100 µM | TGI (CAKI-1 renal): > 100 µM | TGI (CCRF-CEM leukemia): > 100 µM | TGI (COLO 205 colon): > 100 µM | TGI (DLD-1 colon): > 100 µM | TGI (DMS 114 small cell lung): > 100 µM | TGI (DMS 273 small cell lung): > 100 µM | TGI (EKVX NSCLC): > 100 µM | TGI (HCC-2998 colon): > 100 µM | TGI (HCT-116 colon): > 100 µM | TGI (HCT-15 colon): > 100 µM | TGI (HL-60(TB) leukemia): > 100 µM | TGI (HOP-18 NSCLC): > 100 µM | TGI (HOP-62 NSCLC): > 100 µM | TGI (HOP-92 NSCLC): > 100 µM | TGI (HT29 colon): > 100 µM | TGI (IGROV1 ovarian): > 100 µM | TGI (K-562 leukemia): > 100 µM | TGI (KM12 colon): > 100 µM | TGI (KM20L2 colon): > 100 µM | TGI (LOX IMVI melanoma): > 100 µM | TGI (LXFL 529 NSCLC): > 100 µM | TGI (M14 melanoma): > 100 µM | TGI (M19-MEL melanoma): > 100 µM | TGI (MALME-3M melanoma): > 100 µM | TGI (MOLT-4 leukemia): > 100 µM | TGI (NCI-H226 lung): > 100 µM | TGI (NCI-H23 lung): > 100 µM | TGI (NCI-H460 lung): > 100 µM | TGI (NCI-H522 lung): > 100 µM | TGI (OVCAR-3 ovarian): > 100 µM | TGI (OVCAR-4 ovarian): > 100 µM | TGI (OVCAR-5 ovarian): > 100 µM | TGI (OVCAR-8 ovarian): > 100 µM | TGI (RPMI-8226 leukemia): > 100 µM | TGI (RXF-631 renal): > 100 µM | TGI (SF-268 CNS): > 100 µM | TGI (SF-295 CNS): > 100 µM | TGI (SF-539 CNS): > 100 µM | TGI (SK-MEL-2 melanoma): > 100 µM | TGI (SK-MEL-28 melanoma): > 100 µM | TGI (SK-MEL-5 melanoma): > 100 µM | TGI (SK-OV-3 ovarian): > 100 µM | TGI (SN12C renal): > 100 µM | TGI (SNB-19 CNS): > 100 µM | TGI (SNB-75 CNS): > 100 µM | TGI (SNB-78 CNS): > 100 µM | TGI (SR leukemia): > 100 µM | TGI (SW-620 colon): > 100 µM | TGI (TK-10 renal): > 100 µM | TGI (U251 CNS): > 100 µM | TGI (UACC-257 melanoma): > 100 µM | TGI (UACC-62 melanoma): > 100 µM | TGI (UO-31 renal): > 100 µM

COc1cc(/C=C2\CCc3ccccc3C2=O)cc(OC)c1OC
TGI (786-0 renal): 29.3 µM | TGI (A549 NSCLC): 50.1 µM | TGI (ACHN renal): 29.6 µM | TGI (CAKI-1 renal): 29.8 µM | TGI (CCRF-CEM leukemia): 75.1 µM | TGI (COLO 205 colon): 30.7 µM | TGI (DLD-1 colon): 28.3 µM | TGI (DMS 114 small cell lung): 25.1 µM | TGI (DMS 273 small cell lung): 24.2 µM | TGI (EKVX NSCLC): 34.3 µM | TGI (HCC-2998 colon): 32.2 µM | TGI (HCT-116 colon): 28 µM | TGI (HCT-15 colon): 34.5 µM | TGI (HL-60(TB) leukemia): 45.5 µM | TGI (HOP-18 NSCLC): 26.9 µM | TGI (HOP-62 NSCLC): 47.8 µM | TGI (HOP-92 NSCLC): 24.5 µM | TGI (HT29 colon): 32.5 µM | TGI (K-562 leukemia): > 100 µM | TGI (KM12 colon): 26.5 µM | TGI (KM20L2 colon): 31.1 µM | TGI (LOX IMVI melanoma): 24.4 µM | TGI (LXFL 529 NSCLC): 29.5 µM | TGI (M14 melanoma): 30 µM | TGI (M19-MEL melanoma): 30 µM | TGI (MALME-3M melanoma): 32.9 µM | TGI (MOLT-4 leukemia): 40.7 µM | TGI (NCI-H226 lung): 36.8 µM | TGI (NCI-H23 lung): 29.2 µM | TGI (NCI-H460 lung): 36.4 µM | TGI (NCI-H522 lung): 28.2 µM | TGI (OVCAR-3 ovarian): 30.1 µM | TGI (OVCAR-4 ovarian): 60.8 µM | TGI (OVCAR-5 ovarian): 27.9 µM | TGI (OVCAR-8 ovarian): 29.8 µM | TGI (RPMI-8226 leukemia): 31.3 µM | TGI (RXF 393 renal): 29 µM | TGI (RXF-631 renal): 38.6 µM | TGI (SF-268 CNS): 30.3 µM | TGI (SF-295 CNS): 28.6 µM | TGI (SF-539 CNS): 30.8 µM | TGI (SK-MEL-2 melanoma): 29.8 µM | TGI (SK-MEL-28 melanoma): 28.4 µM | TGI (SK-MEL-5 melanoma): 25.3 µM | TGI (SK-OV-3 ovarian): 35.5 µM | TGI (SN12C renal): 35.6 µM | TGI (SNB-19 CNS): 29.2 µM | TGI (SNB-75 CNS): 53.6 µM | TGI (SNB-78 CNS): 74.1 µM | TGI (SR leukemia): > 100 µM | TGI (SW-620 colon): 31 µM | TGI (TK-10 renal): 33.6 µM | TGI (U251 CNS): 29.7 µM | TGI (UACC-257 melanoma): 27.4 µM | TGI (UACC-62 melanoma): 27.5 µM | TGI (UO-31 renal): 30.7 µM | TGI (XF 498 CNS): 32.1 µM
